Assay results published in PubChem BioAssay (NCI).
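Test compounds were applied to cells in 96-well plates for 48 hours at 5 doses. GI50 = concentration required for 50% inhibition of growth. At the TGI there is no net growth.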

Assays:
Experiment in all cases: growth of human tumour cells (NCI), 48 h
K-562 leukemia = system: K-562 leukemia
SF-295 CNS = system: SF-295 CNS
IGROV1 ovarian = system: IGROV1 ovarian
COLO 205 colon = system: COLO 205 colon
SNB-75 CNS = system: SNB-75 CNS
M14 melanoma = system: M14 melanoma
786-0 renal = system: 786-0 renal
CAKI-1 renal = system: CAKI-1 renal
UO-31 renal = system: UO-31 renal
SK-OV-3 ovarian = system: SK-OV-3 ovarian
LOX IMVI melanoma = system: LOX IMVI melanoma
PC-3 prostate = system: PC-3 prostate
OVCAR-4 ovarian = system: OVCAR-4 ovarian
HCT-116 colon = system: HCT-116 colon
U251 CNS = system: U251 CNS
ACHN renal = system: ACHN renal
SK-MEL-2 melanoma = system: SK-MEL-2 melanoma
KM12 colon = system: KM12 colon
EKVX NSCLC = system: EKVX NSCLC
OVCAR-8 ovarian = system: OVCAR-8 ovarian
HCC-2998 colon = system: HCC-2998 colon
NCI-H522 lung = system: NCI-H522 lung
HOP-62 NSCLC = system: HOP-62 NSCLC
NCI/ADR-RES ovarian = system: NCI/ADR-RES ovarian
MOLT-4 leukemia = system: MOLT-4 leukemia
RXF 393 renal = system: RXF 393 renal
SN12C renal = system: SN12C renal
HS 578T breast = system: HS 578T breast
SK-MEL-5 melanoma = system: SK-MEL-5 melanoma

`O=C1C=C(SCCO)C(=O)c2ccccc21` was tested, and the TGI (K-562 leukemia) was 4250 nM, the GI50 (SF-295 CNS) was 1620 nM and the TGI (SF-295 CNS) was 3000 nM. The GI50 (IGROV1 ovarian) was 3610 nM, the TGI (IGROV1 ovarian) was 14700 nM and the GI50 (COLO 205 colon) was 2110 nM. It also gave a TGI (COLO 205 colon) of 4290 nM, a GI50 (SNB-75 CNS) of 1370 nM and a TGI (SNB-75 CNS) of 2680 nM. The GI50 (M14 melanoma) was 1780 nM, the TGI (M14 melanoma) was 3360 nM and the GI50 (786-0 renal) was 2270 nM. For the same compound, the TGI (786-0 renal) was 6460 nM, the GI50 (CAKI-1 renal) was 2080 nM and the TGI (CAKI-1 renal) was 6970 nM. For the same compound, the GI50 (UO-31 renal) was 1240 nM, the TGI (UO-31 renal) was 2490 nM and the GI50 (SK-OV-3 ovarian) was 3970 nM. The TGI (SK-OV-3 ovarian) was 16300 nM, the GI50 (LOX IMVI melanoma) was 1530 nM and the TGI (LOX IMVI melanoma) was 3260 nM. For the same compound, the GI50 (PC-3 prostate) was 2450 nM, the TGI (PC-3 prostate) was 8890 nM and the GI50 (OVCAR-4 ovarian) was 1420 nM. The TGI (OVCAR-4 ovarian) was 2750 nM, the GI50 (HCT-116 colon) was 1800 nM and the TGI (HCT-116 colon) was 3680 nM. For the same compound, the GI50 (U251 CNS) was 1760 nM, the TGI (U251 CNS) was 3250 nM and the GI50 (ACHN renal) was 1540 nM. It also gave a TGI (ACHN renal) of 2870 nM, a GI50 (SK-MEL-2 melanoma) of 1940 nM and a TGI (SK-MEL-2 melanoma) of 3910 nM. For the same compound, the GI50 (KM12 colon) was 2610 nM, the TGI (KM12 colon) was 9860 nM and the GI50 (EKVX NSCLC) was 1460 nM. It also gave a TGI (EKVX NSCLC) of 3330 nM, a GI50 (OVCAR-8 ovarian) of 2890 nM and a TGI (OVCAR-8 ovarian) of 10800 nM. The GI50 (HCC-2998 colon) was 2780 nM, the TGI (HCC-2998 colon) was 6800 nM and the GI50 (NCI-H522 lung) was 1890 nM. For the same compound, the TGI (NCI-H522 lung) was 3970 nM, the GI50 (HOP-62 NSCLC) was 1700 nM and the TGI (HOP-62 NSCLC) was 3550 nM. For the same compound, the GI50 (NCI/ADR-RES ovarian) was 2160 nM, the TGI (NCI/ADR-RES ovarian) was 5820 nM and the GI50 (MOLT-4 leukemia) was 1260 nM. It also gave a TGI (MOLT-4 leukemia) of 4510 nM, a GI50 (RXF 393 renal) of 1640 nM and a TGI (RXF 393 renal) of 3010 nM. It also gave a GI50 (SN12C renal) of 1580 nM, a TGI (SN12C renal) of 3040 nM and a GI50 (HS 578T breast) of 2210 nM. For the same compound, the TGI (HS 578T breast) was 7500 nM, the GI50 (SK-MEL-5 melanoma) was 1610 nM and the TGI (SK-MEL-5 melanoma) was 2970 nM.
